The values below come from publication PMC7766327, “Inhibition of Pneumolysin Cytotoxicity by Hydrolysable Tannins” (Antibiotics, 2020).

The target in assay [1] is T1, pneumolysin (Ply) (Streptococcus pneumoniae serotype 2, UniProt Q04IN8).
T1 construct: made in house; host or cells: E. coli BL21(DE3)
Kind of assay: cell-based. Format: cell-based. On the procedure:
Native human erythrocytes were taken into EDTA tubes. The erythrocytes were washed three times with PBS (0.15 M NaCl, 2.7 mM KCl, 8.1 mM Na2HPO4 and 1.5 mM KH2PO4) by centrifugation at 700× g for 10 min. The purified erythrocytes were stored at +4 °C. Erythrocytes (1% v/v) in PBS were mixed with 1 nM Ply and dilution series of polyphenol inhibitors in 96-well microtiter plates. The reaction was incubated for 30 min at 37 °C. The plates were centrifuged, and the supernatant was pipetted into flat-bottomed microtiter plates to measure the absorbance at 570 nm (VICTOR X4, PerkinElmer, Turku, Finland) of the released hemoglobin from lysed erythrocytes. The absorbances of triplicate measurements are presented as a function of inhibitor concentration. The IC50 values were calculated with Origin data analysis software (2016, OriginLab Corporation, Northampton, MA, USA).

Assay [2] addresses T1, pneumolysin (Ply). Kind of assay: Precipitation assay of pneumolysin-tannin interaction. Format: binding. On the procedure:
The precipitation assay with tannins was done as described previously with bovine serum albumin [22]. First, 10 μM of Ply and dilution series of polyphenols (5–1000 µM) were incubated in a Na-acetate buffer (200 mM NaCl and 50 mM CH3COONa; pH 5.0) at 25 °C for 30 min with shaking. The reactions were carried out in Multiskan Ascent plate reader (Labsystems, Vantaa, Finland) and the precipitation was measured at 414 nm. The minimum concentration precipitating Ply was calculated with Origin data analysis software (2016, OriginLab Corporation, Northampton, MA, USA).

The target of assay [3] is T1, pneumolysin (Ply). Kind of assay: Pneumolysin oligomerization assay using erythrocytes. Format: cell-based. On the procedure: For the oligomerization assay, 100 nM Ply (3 µg), 1% (v/v) erythrocytes and 100 µM PGG in PBS were incubated for 2 min at 25 °C and were centrifuged at 16,000× g for 30 min at +7 °C. The pellet containing intact erythrocytes and the membranes from lysed cells were suspended into the water to complete the lysis and recentrifuged at 16,000× g for 30 min. The membranes were suspended into an SDS-PAGE sample buffer (60 mM Tris-HCl, pH 6.8; 2% SDS; 0.001% bromophenol blue; 0.5% β-mercaptoethanol) without incubation at 95 °C and the proteins were separated in 6% SDS-PAGE gel. The gel was stained with Coomassie blue (40% methanol; 10% acetic acid; 0.25% Brilliant blue R-250) and destained in 20% methanol and 5% acetic acid overnight. The proteins were transferred to polyvinyldifluoride (PVDF) membrane for 30 min, 25 V in SDS-PAGE running buffer (25 mM Tris, 190 mM glycine, 0.1% SDS) using the Trans-Blot Turbo Transfer System (Bio-Rad Laboratories Inc., Hercules, CA, USA). The membrane was blocked with 5% (w/v) defatted milk powder in TBS-Tween (10 mM Tris pH 7.5; 150 mM NaCl; 0.05% Tween 20) for 30 min at 25 °C. The His-tagged Ply was detected with anti-His antibody (1:5000 dilution, Sigma-Aldrich, St. Louis, MO, USA) and horseradish […] anti-mouse antibody (1:10,000 dilution, DakoCytomation, Glostrup, Denmark). […]

The target in assay [4] is T1, pneumolysin (Ply). Kind of assay: A549 cell cytotoxicity assay (LDH release). Format: cell-based. Particulars: 2 nM Ply, A549 cells, 2 h. As to the method:
For the A549 cell cytotoxicity assay, 5000 cells/well of A549 cells were grown in Dulbecco’s modified Eagle Medium, DMEM (Thermo Fischer Scientific Inc., Waltham, MA, USA), 2 mM glutamine and 10% fetal calf serum (FCS) for 48 h in 96-well microtiter plates. Cells were washed with PBS and dilutions of PGG (0, 125, 250, 500, 1000 and 2000 nM) and 2 nM Ply in PBS were added to the wells and they were incubated for 2 h at 37 °C in 5% CO2 atmosphere. Ply cytotoxicity was determined with the Cytotoxicity Detection Kit^PLUS (Roche Diagnostics GmbH, Mannheim, Germany) according to the manufacturer’s instructions. The released LDH was measured at A490. Complete lysis control was measured in the presence of 0.02% Triton X-100, and for background measurements, cells were incubated without Ply. The values were normalized by calculating using the equation (A490 Ply+inhibitor − A490 Background)/(A490 Triton X-100 − A490 Background)(1)
(In general: LDH leaks from cells whose membrane has failed.)

For the next assay, the system named is Ply. Details: method as in PMID 15928084. Particulars: cited from earlier work.

T1 sequence (Q04IN8 whole entry): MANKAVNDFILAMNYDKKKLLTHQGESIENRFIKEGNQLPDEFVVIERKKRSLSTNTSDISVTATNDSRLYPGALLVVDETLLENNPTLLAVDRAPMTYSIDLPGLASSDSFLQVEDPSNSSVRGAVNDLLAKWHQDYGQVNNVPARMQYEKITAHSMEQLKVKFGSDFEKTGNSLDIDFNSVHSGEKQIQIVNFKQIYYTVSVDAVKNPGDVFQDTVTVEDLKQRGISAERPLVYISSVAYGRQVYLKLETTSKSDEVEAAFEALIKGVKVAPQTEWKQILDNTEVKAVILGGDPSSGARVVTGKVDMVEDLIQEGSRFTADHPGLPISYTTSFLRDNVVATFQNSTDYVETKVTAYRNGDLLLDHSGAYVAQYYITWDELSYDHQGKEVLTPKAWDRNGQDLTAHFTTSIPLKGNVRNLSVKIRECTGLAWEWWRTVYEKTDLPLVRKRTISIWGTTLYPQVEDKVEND

Usually IC50 stands for the concentration that inhibits the measured activity by half. By inhibition is commonly meant how much of the control response was suppressed. Turning to `O=C(OC[C@H]1O[C@@H](OC(=O)c2cc(O)c(O)c(O)c2)[C@H](OC(=O)c2cc(O)c(O)c(O)c2)[C@@H](OC(=O)c2cc(O)c(O)c(O)c2)[C@@H]1OC(=O)c1cc(O)c(O)c(O)c1)c1cc(O)c(O)c(O)c1` [PGG, 1,2,3,4,6-penta-O-galloyl-β-D-glucose], the “Hemolysis Inhibition Inhibitory Power” value at pneumolysin (Ply) [1] turned out to be 13. For the same compound, the IC50 on pneumolysin (Ply) [1] (Hemolysis Inhibition IC50, 1 nM Ply, 1% human erythrocytes, 30 min 37 °C, logistic fit) was 18 ± 0.7 nM; on pneumolysin (Ply) [1] (IC50 (screening with hemolysis assays), estimated from the inhibition curves, two-fold dilutions of tannins) it was 10 nM. Moreover, the “Inhibitor class in hemolysis inhibition assay” value at pneumolysin (Ply) [1] (classification by IC50 from two-fold dilutions) is given as “potent (potent inhibitors (IC50 10–30 nM))”. Moreover, the “Minimum Precipitating Concentration” value on pneumolysin (Ply) [2] (10 μM Ply, Na-acetate buffer pH 5.0, 25 °C, 30 min, absorbance 414 nm) stood at 14 µM. In addition, the “Precipitation Relative Power” value on pneumolysin (Ply) [2] (fold compared to vescalagin (=1)) was determined as 58. For the same compound, the “Fold higher precipitating concentration compared to hemolysis IC50” value at pneumolysin (Ply) [2] (minimum precipitating concentration vs hemolysis IC50) amounted to 770 fold. In addition, the “Ply oligomer complex on erythrocytes” value on pneumolysin (Ply) [3] (100 µM PGG, 100 nM Ply, Coomassie-stained SDS-PAGE) is recorded as “abolished”. At pneumolysin (Ply) [3] (dilution series of PGG (0–100 µM), Western blotting with anti-His antibody), the “Concentration that still inhibited Ply oligomerization” value is 30 µM. The inhibition at 0.5 µM on pneumolysin (Ply) [4] (500 nM PGG, compared to pneumolysin alone) is 60%. Also, at pneumolysin (Ply) [4] (1000 nM PGG, compared to pneumolysin alone), the inhibition at 1 µM is 87%. The same compound had an inhibition at 2 µM against pneumolysin (Ply) [4] (2000 nM PGG, compared to pneumolysin alone) of 90%. Also, on pneumolysin (Ply) [4] (≤250 nM PGG), the “Inhibition of LDH release” value is reported as “moderate inhibition”.
As to `O=C(O[C@@H]1Cc2c(O)cc(O)cc2O[C@@H]1c1cc(O)c(O)c(O)c1)c1cc(O)c(O)c(O)c1` [EGCG, epigallocatechin gallate], the “Concentration required for inhibition of Ply hemolytic activity” value in the assay with Ply was “micromolar concentrations were required”.
